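Where inhibition never reached the appropriate level, the endpoint shown equals the highest concentration tested. Otherwise, values were interpolated linearly from a five-concentration, 48-hour dose response in 96-well plates. At the GI50, growth is halved. TGI is the concentration that stops growth completely.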
Assays:
Experiment in all cases: NCI anticancer screen, dose series, 48 h
COLO 205 colon = tested on: COLO 205 colon
DU-145 prostate = tested on: DU-145 prostate
HOP-62 NSCLC = tested on: HOP-62 NSCLC
K-562 leukemia = tested on: K-562 leukemia
LOX IMVI melanoma = tested on: LOX IMVI melanoma
NCI-H23 lung = tested on: NCI-H23 lung
TK-10 renal = tested on: TK-10 renal
U251 CNS = tested on: U251 CNS
UACC-257 melanoma = tested on: UACC-257 melanoma
SK-OV-3 ovarian = tested on: SK-OV-3 ovarian

SMILES | TGI (COLO 205 colon) | TGI (DU-145 prostate) | TGI (HOP-62 NSCLC) | TGI (K-562 leukemia) | TGI (LOX IMVI melanoma) | TGI (NCI-H23 lung) | TGI (TK-10 renal) | TGI (U251 CNS) | TGI (UACC-257 melanoma) | TGI (SK-OV-3 ovarian) | GI50 (COLO 205 colon) | GI50 (DU-145 prostate) | GI50 (LOX IMVI melanoma) | GI50 (NCI-H23 lung) | GI50 (SK-OV-3 ovarian) | GI50 (TK-10 renal) | GI50 (U251 CNS) | GI50 (UACC-257 melanoma) | GI50 (HOP-62 NSCLC) | GI50 (K-562 leukemia)
CC(=O)O[C@@H]1CO[C@H]2O[C@H]3[C@@H](C(C=O)=C[C@H](O)[C@@H]4C5=C(C(C)C)CC[C@]5(C)CC[C@@]34C)[C@@]2(O)C1=O | 0.249 µM | 2.02 µM | 1.82 µM | 0.368 µM | 0.687 µM | 0.893 µM | 0.596 µM | 0.55 µM | 0.629 µM | – | – | – | – | – | – | – | – | – | – | –
CCCNCc1nc2ccc(Br)cc2c(=O)n1CCC | 27.7 µM | – | 36.9 µM | > 100 µM | 17.7 µM | 26.2 µM | – | 26.3 µM | 26 µM | 32.6 µM | – | – | – | – | – | – | – | – | – | –
Cc1c(C(=O)/C=C/c2ccc(Cl)cc2)[n+](=O)c2ccccc2n1[O-] | 27.1 µM | – | 63.5 µM | 52.9 µM | 20.5 µM | 22.2 µM | 35.5 µM | 26.3 µM | 30.4 µM | 47.6 µM | – | – | – | – | – | – | – | – | – | –
O=C(CCC(=O)Nc1ccc(Cl)cc1)CC(=O)c1ccc(F)cc1 | > 100 µM | – | > 100 µM | > 100 µM | > 100 µM | > 100 µM | > 100 µM | – | > 100 µM | > 100 µM | – | – | – | – | – | – | – | – | – | –
CC(=O)N1CC2Nc3ccccc3C2CC1CO (stereo not drawn) | > 100 µM | – | > 100 µM | > 100 µM | > 100 µM | > 100 µM | > 100 µM | > 100 µM | > 100 µM | > 100 µM | – | – | – | – | – | – | – | – | – | –
Brc1ccc([I+]c2ccc(Br)cc2)cc1 | 2.68 µM | 16.6 µM | – | – | 2.12 µM | 4.2 µM | 13.3 µM | 2.65 µM | 5.53 µM | 3.12 µM | 1.18 µM | 3.6 µM | 0.713 µM | 1.11 µM | 1.5 µM | 1.97 µM | 1.32 µM | 2.06 µM | – | –
C(=C\c1csnn1)/c1cccnc1 | > 100 µM | – | > 100 µM | > 100 µM | > 100 µM | > 100 µM | > 100 µM | > 100 µM | > 100 µM | > 100 µM | – | – | – | – | – | – | – | – | – | –
Cn1c(=O)cc2c3c(c(NCCCO)ccc31)C(=O)c1ccccc1-2 | > 100 µM | > 100 µM | > 100 µM | 64.3 µM | 20.7 µM | > 100 µM | – | > 100 µM | > 100 µM | > 100 µM | 3.86 µM | 7.62 µM | 1.44 µM | 3.37 µM | 9.81 µM | – | 2.6 µM | 5.37 µM | 19.2 µM | 2.09 µM
O=c1ccccc2cccc(O)c12 | > 100 µM | – | > 100 µM | > 100 µM | > 100 µM | > 100 µM | > 100 µM | > 100 µM | > 100 µM | > 100 µM | – | – | – | – | – | – | – | – | – | –
COc1ccc(C(c2ccc(C(C)C)cc(=O)c2O)c2c(O)cc3oc(-c4ccccc4)cc(=O)c3c2O)cc1 (stereo not drawn) | 25.9 µM | – | 9.67 µM | 64.3 µM | 47.7 µM | 55.7 µM | 90.3 µM | 22.3 µM | 72.4 µM | 55.4 µM | – | – | – | – | – | – | – | – | – | –
O=C1/C(=C/c2ccccc2Cl)N=C(c2ccccc2)N1Cc1ccco1 | > 100 µM | > 100 µM | > 100 µM | > 100 µM | – | > 100 µM | > 100 µM | > 100 µM | 39.8 µM | > 100 µM | 51.4 µM | 69.2 µM | – | 40.5 µM | > 100 µM | > 100 µM | 57.8 µM | 21.2 µM | > 100 µM | 24.2 µM
O=C1CCCC/C1=C/C=C/c1ccccc1 | > 100 µM | > 100 µM | – | > 100 µM | > 100 µM | > 100 µM | > 100 µM | > 100 µM | > 100 µM | > 100 µM | – | – | – | – | – | – | – | – | – | –
O=c1/c(=C/c2ccc(Cl)cc2Cl)sc2nc3ccccc3n12 | > 100 µM | – | > 100 µM | > 100 µM | > 100 µM | > 100 µM | > 100 µM | > 100 µM | > 100 µM | > 100 µM | – | – | – | – | – | – | – | – | – | –
CCCCCCCCCCCCCCCC(=O)OCC(O)C1OC(=O)C(O)=C1O (stereo not drawn) | > 100 µM | > 100 µM | 60.3 µM | 77.7 µM | 46.2 µM | 96.3 µM | – | 61.7 µM | > 100 µM | > 100 µM | – | – | – | – | – | – | – | – | – | –
CCOC(=O)/N=C(\N)SCc1ccccc1 | – | – | > 100 µM | > 100 µM | > 100 µM | > 100 µM | > 100 µM | > 100 µM | > 100 µM | > 100 µM | – | – | – | – | – | – | – | – | – | –
Cc1cc(NS(=O)(=O)c2ccc(NC(=O)c3cccc4c(N)c5ccccc5nc34)cc2)no1 | 53.6 µM | – | 86.9 µM | > 100 µM | 65.8 µM | 52.2 µM | > 100 µM | 78.2 µM | – | 75.5 µM | – | – | – | – | – | – | – | – | – | –
O=c1cc(Cl)nc[nH]1 | > 100 µM | – | > 100 µM | > 100 µM | > 100 µM | > 100 µM | > 100 µM | > 100 µM | > 100 µM | > 100 µM | – | – | – | – | – | – | – | – | – | –
COc1ccc2[nH]cc(-c3nc(-c4cn(C)c5ccncc45)cs3)c2c1 | – | 3.11 µM | 3.63 µM | – | – | 4.12 µM | 3.12 µM | 3.42 µM | 33.3 µM | 33.7 µM | – | 1.7 µM | – | 2.12 µM | 19.4 µM | 1.48 µM | 1.91 µM | 16.7 µM | 1.92 µM | –
CCC[CH2][Sn]([CH2]CCC)([O]C(=O)c1cccc(F)c1)[O]C(=O)c1cccc(F)c1 | 2.18 µM | – | 3.38 µM | 1.81 µM | 2.99 µM | 1.57 µM | 2.58 µM | 2.26 µM | 2.6 µM | 3.45 µM | 0.852 µM | – | 0.605 µM | 0.329 µM | 1.84 µM | 1.29 µM | 1.05 µM | 1.17 µM | 1.91 µM | 0.298 µM
CC1(O)CC2C(CC1SCCO)C2(C)C (stereo not drawn) | > 100 µM | – | – | > 100 µM | – | > 100 µM | > 100 µM | > 100 µM | > 100 µM | > 100 µM | – | – | – | – | – | – | – | – | – | –

— PubChem BioAssay (NCI)
